The MIC is the smallest concentration in the dilution series that meets the test's criterion for growth inhibition.

Where two headings read alike, the source gives them in different places.

Type in all cases: cell-based
One experiment relates to A. baumannii. The experiment is described as follows: MIC broth microdilution (CLSI). Conditions: Acinetobacter baumannii. The protocol:
(§1) Minimum inhibitory concentrations for representative example compounds herein were determined by a broth microdilution method in accordance with the Clinical and Laboratory Standards Institute (CLSI) guidelines. In brief, organism suspensions were adjusted to a 0.5 McFarland standard to yield a final inoculum between 3×10^5 and 7×10^5 colony-forming units (CFU)/mL. The inoculum was prepared by suspension of a colony from an agar plate that was prepared the previous day. Compound dilutions and inoculum were prepared in sterile, cation adjusted Mueller-Hinton Broth (Beckton Dickinson).
(§2) Bacteria were suspended in sterile saline and added to each assay plate to obtain a final concentration of 5×10^5 CFU/mL. An inoculum volume of 100 μL was added to wells containing 100 μL of broth with 2-fold serial dilutions of the test compound. All inoculated microdilution trays were incubated in ambient air at 35° C. for 18-24 hours. Following incubation, the lowest concentration of the compound that prevented visible growth (OD 600 nm<0.05) is recorded was the MIC. […] Performance of the assay was monitored by the use of laboratory quality-control strains and a standard compound with a defined MIC spectrum (neomycin), in accordance with CLSI guidelines.
(In general: Dilution methods test growth across graded concentrations, often in twofold steps.)

For another experiment, the system named is E. coli. In words: MIC broth microdilution (CLSI). The following applies: Escherichia coli. The protocol: as §1, §2
Experiment [1] concerns P. aeruginosa. In words: MIC broth microdilution (CLSI). The following applies: Pseudomonas aeruginosa. As for the experimental part:
as §1, §2

Experiment [2] concerns A. baumannii-calcoaceticus. In words: Antibacterial surveillance of clinical isolates (MIC50/90). The following applies: 100 isolates. The protocol:
as §1, §2
(§3) Several compounds of the disclosure (Compound 1, 2, and 3) were further evaluated against several hundred bacterial isolates (isolated in the United States and Europe, 1:1) selected from the SENTRY Antimicrobial Surveillance Program (JMI Laboratories, North Liberty, Iowa). The set of clinical isolates included 300 randomly selected Enterobacterales, 103 randomly selected P. aeruginosa, 100 randomly selected A. baumannii-calcoaceticus, 20 randomly selected Methicillin-sensitive S. aureus (MSSA), and 30 randomly selected Methicillin-resistant S. aureus (MRSA). In addition, 101 Enterobacterales and 50 P. aeruginosa isolates with genetically defined mechanisms of aminoglycoside resistance were included. The MIC values at which ≥50% (MIC50) and ≥90% (MIC90) of isolates within a given set are inhibited were determined for each compound against each set of organisms.

Experiment [3] has as its system AG-resistant Enterobacterales. The experiment is described as above. The following applies: 101 isolates with defined aminoglycoside resistance. The protocol: as §1, §2, §3
The test system of experiment [4] is AG-resistant P. aeruginosa. The description is as above. Conditions: 50 isolates with defined aminoglycoside resistance. The protocol: as §1, §2, §3
The test system of experiment [5] is Methicillin-resistant S. aureus (MRSA). Described as above. Conditions: 30 isolates. As for the experimental part: as §1, §2, §3
The subject of experiment [6] is Methicillin-sensitive S. aureus (MSSA). Described as above. Conditions: 20 isolates. As for the experimental part: as §1, §2, §3
Experiment [7] relates to P. aeruginosa. The experiment is described as above. The following applies: 103 isolates. The protocol:
as §1, §2, §3

The mark [8] stands for this setting: read-out: Activity (MIC), strain NABA0007, ΔadeJK efflux.
Setting [9] is: strain NABA0006, WT parent, read-out: Activity (MIC).
The mark [10] stands for this setting: strain NABA0020, AME negative strain, read-out: Activity (MIC).
The mark [11] stands for this setting: read-out: Activity (MIC), strain NECO0003, ΔtolC.
[12] abbreviates: read-out: Activity (MIC), strain NECO0245, ArmA.
Setting [13] is: strain NECO0001, WT QC, read-out: Activity (MIC).
[14] abbreviates: strain NECO0002, WT, read-out: Activity (MIC).
[15] abbreviates: strain NECO0243, empty vector, read-out: Activity (MIC).
Setting [16] is: strain NECO0244, AAC(6')-Ib, read-out: Activity (MIC).
Where [17] appears, read: strain NECO0289, APH(3')-Ia, read-out: Activity (MIC).
Setting [18] is: strain NECO0302, AAC(3)-IIa, read-out: Activity (MIC).
Where [19] appears, read: strain NECO0350, AAC(2')-I, read-out: Activity (MIC).
[20] abbreviates: strain NECO0359, ANT(4')-Ia, read-out: Activity (MIC).
[21] abbreviates: read-out: Activity (MIC), strain NPAE0006, Efflux KO, Aph(3')-IIb.
Where [22] appears, read: read-out: Activity (MIC), strain NPAE0010, MexXY over-expressed, Aph(3')-IIb.
Where [23] appears, read: strain NPAE0001, WT Aph(3')-IIb, QC, read-out: Activity (MIC).
[24] abbreviates: strain NPAE0002, WT Aph(3')-IIb, read-out: Activity (MIC).
Where [25] appears, read: strain NPAE0359, aph(3')-IIb KO (tetR), read-out: Activity (MIC).

In the case of `CN[C@@H](C)[C@@H]1CC[C@@H](N)[C@@H](O[C@@H]2[C@@H](N)[C@H](O)[C@@H](NC(=O)[C@@H](O)[C@H](F)CN)[C@H](O)[C@H]2O[C@@H]2O[C@H](CO)[C@@H](O[C@H]3O[C@@H](CN)[C@@H](O)[C@H](O)[C@H]3N)[C@H]2O)O1` [Compound 7, (2R,3R)-4-amino-N-((1R,2S,3S,4R,5R,6S)-3-amino-4-(((2R,3R,6S)-3-amino-6-((S)-1-(methylamino)ethyl)tetrahydro-2H-pyran-2-yl)oxy)-5-(((2S,3R,4S,5R)-4-(((2R,3R,4R,5S,6S)-3-amino-6-(aminomethyl)-4,5-dihydroxytetrahydro-2H-pyran-2-yl)oxy)-3-hydroxy-5-(hydroxymethyl)tetrahydrofuran-2-yl)oxy)-2,6-dihydroxycyclohexyl)-3-fluoro-2-hydroxybutanamide], the MIC with A. baumannii (setting [8]), with A. baumannii (setting [9]), in the experiment on A. baumannii (setting [10]), in the experiment on E. coli (setting [11]), with E. coli (setting [12]) and in the experiment with E. coli (setting [13]) was < 16 µg/mL in each case. Moreover, the minimum inhibitory concentration (MIC) with E. coli (setting [14]) was < 16 µg/mL; in the experiment with E. coli (setting [15]), < 16 µg/mL; with E. coli (setting [16]), < 16 µg/mL; in the experiment on E. coli (setting [17]), > 16 µg/mL; with E. coli (setting [18]), < 16 µg/mL; in the experiment on E. coli (setting [19]), < 16 µg/mL. Besides, the MIC with E. coli (setting [20]) was < 16 µg/mL; in the experiment with P. aeruginosa [1] (setting [21]), < 16 µg/mL; with P. aeruginosa [1] (setting [22]), > 16 µg/mL; in the experiment on P. aeruginosa [1] (setting [23]), < 16 µg/mL; in the experiment on P. aeruginosa [1] (setting [24]), < 16 µg/mL; with P. aeruginosa [1] (setting [25]), < 16 µg/mL.

In the case of `C[C@@H](N)[C@@H]1CC[C@@H](N)[C@@H](O[C@@H]2[C@@H](N)[C@H](O)[C@@H](NC(=O)[C@@H](O)[C@H](F)CN)[C@H](O)[C@H]2O[C@@H]2O[C@H](CO)[C@@H](O[C@H]3O[C@@H](CN)[C@@H](O)[C@H](O)[C@H]3N)[C@H]2O)O1` [Compound 4, (2R,3R)-4-amino-N-((1R,2S,3S,4R,5R,6S)-3-amino-4-(((2R,3R,6S)-3-amino-6-((R)-1-aminoethyl)tetrahydro-2H-pyran-2-yl)oxy)-5-(((2S,3R,4S,5R)-4-(((2R,3R,4R,5S,6S)-3-amino-6-(aminomethyl)-4,5-dihydroxytetrahydro-2H-pyran-2-yl)oxy)-3-hydroxy-5-(hydroxymethyl)tetrahydrofuran-2-yl)oxy)-2,6-dihydroxycyclohexyl)-3-fluoro-2-hydroxybutanamide], the MIC in the experiment with A. baumannii (setting [8]), in the experiment with A. baumannii (setting [9]), with A. baumannii (setting [10]), in the experiment with E. coli (setting [11]), in the experiment with E. coli (setting [12]) and with E. coli (setting [13]) was < 16 µg/mL in each case. Besides, the MIC in the experiment on E. coli (setting [14]), in the experiment on E. coli (setting [15]), with E. coli (setting [16]), in the experiment on E. coli (setting [17]), in the experiment on E. coli (setting [18]) and in the experiment on E. coli (setting [19]) was < 16 µg/mL in each case. The MIC in the experiment on E. coli (setting [20]), in the experiment with P. aeruginosa [1] (setting [21]), in the experiment with P. aeruginosa [1] (setting [22]), in the experiment with P. aeruginosa [1] (setting [23]), with P. aeruginosa [1] (setting [24]) and in the experiment on P. aeruginosa [1] (setting [25]) was < 16 µg/mL each time.

On to `C[C@@H](N)[C@@H]1CC[C@@H](N)[C@@H](O[C@@H]2[C@@H](N)[C@H](O)[C@@H](NC(=O)[C@@H](O)CCN)[C@H](O)[C@H]2O[C@@H]2O[C@H](CO)[C@@H](O[C@H]3O[C@@H](CN)[C@@H](O)[C@H](O)[C@H]3N)[C@H]2O)O1` [Compound 5, (S)-4-Amino-N-((1R,2S,3S,4R,5R,6S)-3-Amino-4-(((2R,3R,6S)-3-Amino-6-((R)-1-Aminoethyl)Tetrahydro-2H-Pyran-2-Yl)Oxy)-5-(((2S,3R,4S,5R)-4-(((2R,3R,4R,5S,6S)-3-Amino-6-(Aminomethyl)-4,5-Dihydroxytetrahydro-2H-Pyran-2-Yl)Oxy)-3-Hydroxy-5-(Hydroxymethyl)Tetrahydrofuran-2-Yl)Oxy)-2,6-Dihydroxycyclohexyl)-2-Hydroxybutanamide], for which the MIC with A. baumannii (setting [8]), in the experiment with A. baumannii (setting [9]), in the experiment on A. baumannii (setting [10]), in the experiment on E. coli (setting [11]), in the experiment on E. coli (setting [12]) and in the experiment on E. coli (setting [13]) was < 16 µg/mL throughout. In addition, the MIC in the experiment on E. coli (setting [14]), in the experiment with E. coli (setting [15]), with E. coli (setting [16]), in the experiment with E. coli (setting [17]), with E. coli (setting [18]) and in the experiment on E. coli (setting [19]) was < 16 µg/mL each time. Besides, the MIC in the experiment with E. coli (setting [20]), in the experiment with P. aeruginosa [1] (setting [21]), in the experiment on P. aeruginosa [1] (setting [22]), in the experiment on P. aeruginosa [1] (setting [23]), in the experiment with P. aeruginosa [1] (setting [24]) and in the experiment on P. aeruginosa [1] (setting [25]) was < 16 µg/mL each time.

Turning to gentamicin [reference compound], the MIC50 entry was “+ (+ = MIC50 or MIC90 ≤ 16 μg/mL)” in experiment [2]; “−/− (− = MIC50 or MIC90 > 16 μg/mL)” in [3]; “+ (+ = MIC50 or MIC90 ≤ 16 μg/mL)” in experiment [4]; “+/+ (+ = MIC50 or MIC90 ≤ 16 μg/mL)” in experiment [5]; “+/+ (+ = MIC50 or MIC90 ≤ 16 μg/mL)” in [6]; “+/+ (+ = MIC50 or MIC90 ≤ 16 μg/mL)” with P. aeruginosa [7]. Further, the MIC90 entry is on record as “− (− = MIC50 or MIC90 > 16 μg/mL)” in [2]; “−/− (− = MIC50 or MIC90 > 16 μg/mL)” in experiment [3]; “− (− = MIC50 or MIC90 > 16 μg/mL)” in [4]; “+/+ (+ = MIC50 or MIC90 ≤ 16 μg/mL)” in experiment [5]; “+/+ (+ = MIC50 or MIC90 ≤ 16 μg/mL)” in [6]; “+/+ (+ = MIC50 or MIC90 ≤ 16 μg/mL)” in the experiment with P. aeruginosa [7].

With `C[C@H](N)[C@@H]1CC[C@@H](N)[C@@H](O[C@@H]2[C@@H](N)[C@H](O)[C@@H](N)[C@H](O)[C@H]2O[C@@H]2O[C@H](CO)[C@@H](O[C@H]3O[C@@H](CN)[C@@H](O)[C@H](O)[C@H]3N)[C@H]2O)O1` [Compound 8, (2S,3S,4R,5R,6R)-5-amino-2-(aminomethyl)-6-(((2R,3S,4R,5S)-5-(((1R,2R,3S,4R,5R,6S)-3,5-diamino-2-(((2R,3R,6S)-3-amino-6-((S)-1-aminoethyl)tetrahydro-2H-pyran-2-yl)oxy)-4,6-dihydroxycyclohexyl)oxy)-4-hydroxy-2-(hydroxymethyl)tetrahydrofuran-3-yl)oxy)tetrahydro-2H-pyran-3,4-diol], the MIC is < 16 µg/mL in the experiment with A. baumannii (setting [8]); < 16 µg/mL in the experiment on A. baumannii (setting [9]); > 16 µg/mL with A. baumannii (setting [10]); < 16 µg/mL in the experiment with E. coli (setting [11]); < 16 µg/mL in the experiment on E. coli (setting [12]); < 16 µg/mL in the experiment with E. coli (setting [13]). Also, the MIC was < 16 µg/mL in the experiment with E. coli (setting [14]); < 16 µg/mL in the experiment with E. coli (setting [15]); < 16 µg/mL with E. coli (setting [16]); > 16 µg/mL with E. coli (setting [17]); < 16 µg/mL with E. coli (setting [18]); < 16 µg/mL in the experiment on E. coli (setting [19]). The MIC in the experiment with E. coli (setting [20]), in the experiment with P. aeruginosa [1] (setting [21]), in the experiment with P. aeruginosa [1] (setting [22]), with P. aeruginosa [1] (setting [23]), in the experiment with P. aeruginosa [1] (setting [24]) and in the experiment on P. aeruginosa [1] (setting [25]) was < 16 µg/mL each time.
